Among the data in patent US11401286B2 (Tetra Discovery Partners, LLC, priority 2012, dated 2022) are IC50 values, retold here.

Structures are written as SMILES. Structures can show the parent of a compound that is named as a salt. Where two headings read alike, the source gives them in different places.

The assay has as its target PDE4D7 (Homo sapiens (Human), UniProt Q08499). The note with it: read-out: PDE4D7 IC50.

Sequence of PDE4D7 (Q08499 other isoform, or with tags, fused parts or gaps): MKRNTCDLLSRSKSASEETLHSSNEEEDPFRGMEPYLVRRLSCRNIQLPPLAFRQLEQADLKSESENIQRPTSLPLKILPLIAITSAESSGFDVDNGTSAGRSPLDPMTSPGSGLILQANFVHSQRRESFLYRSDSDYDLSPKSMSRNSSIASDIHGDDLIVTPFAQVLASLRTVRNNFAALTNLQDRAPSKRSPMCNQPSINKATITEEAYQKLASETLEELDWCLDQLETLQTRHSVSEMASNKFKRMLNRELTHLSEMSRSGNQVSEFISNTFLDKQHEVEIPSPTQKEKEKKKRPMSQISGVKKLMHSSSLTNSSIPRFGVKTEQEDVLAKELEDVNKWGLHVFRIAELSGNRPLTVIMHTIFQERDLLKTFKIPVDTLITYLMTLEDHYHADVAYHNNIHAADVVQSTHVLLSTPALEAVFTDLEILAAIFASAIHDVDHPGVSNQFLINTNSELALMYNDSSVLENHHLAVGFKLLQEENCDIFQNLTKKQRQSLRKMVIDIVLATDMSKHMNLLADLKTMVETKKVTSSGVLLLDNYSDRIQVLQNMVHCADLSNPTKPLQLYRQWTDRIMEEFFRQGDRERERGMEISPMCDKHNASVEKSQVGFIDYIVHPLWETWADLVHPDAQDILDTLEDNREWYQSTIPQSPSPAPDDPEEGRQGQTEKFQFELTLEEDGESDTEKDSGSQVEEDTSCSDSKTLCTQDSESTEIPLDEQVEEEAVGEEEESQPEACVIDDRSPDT

The IC50 is the concentration at which inhibition is half-maximal. For the molecule `NC(=O)Cc1ccc(Cc2cc(-c3cccc(Cl)c3)nc3c2CCC3)cc1` [Example 125, 2-(4-((2-(3-Chlorophenyl)-6,7-dihydro-5H-cyclopenta[b]pyridin-4-yl)methyl)phenyl)acetamide hydrochloride], the IC50 (PDE4D7 without asterisk) was more than 1000 nM. `NC(=O)Cc1ccc(Cc2cc(-c3cccc(Cl)c3)nc(C(F)(F)F)c2)cc1` [Example 144, 2-(4-((2-(3-Chlorophenyl)-6-(trifluoromethyl)pyridin-4-yl)methyl)phenyl)acetamide]: the IC50 (PDE4D7 without asterisk) is more than 1000 nM. Same read-out and setting: in the case of `CCc1c(C)nc(-c2ccc(Cl)s2)nc1Nc1ccc(Cc2noc(=O)[nH]2)cc1` [Example 302, 3-[[4-[[2-(5-Chloro-2-thienyl)-5-ethyl-6-methyl-pyrimidin-4-yl]amino]phenyl]methyl]-4H-1,2,4-oxadiazol-5-one] it was more than 1000 nM; in that of `CCc1nc(Nc2ccc(CC(N)=O)cc2)nc(-c2cccc(Cl)c2)n1` [Example 57, 2-(4-(4-(3-chlorophenyl)-6-ethyl-1,3,5-triazin-2-ylamino)phenyl)acetamide], less than 1000 nM; in that of `O=C(O)c1ccc(Nc2nc(-c3cccc(Cl)c3)nc(C3CC3)n2)cc1` [Example 41, 4-((4-(3-chlorophenyl)-6-cyclopropyl-1,3,5-triazin-2-yl)amino)benzoic acid], less than 1000 nM. As to `CCc1cc(Cc2ccc(C(C)(C)C(N)=O)cc2)nc(-c2cccc(Cl)c2)n1` [Example 196, 2-(4-((2-(3-Chlorophenyl)-6-ethylpyrimidin-4-yl)methyl)phenyl)-2-methylpropanamide], the IC50 (PDE4D7 without asterisk) was more than 1000 nM. Turning to `NC(=O)Cc1ccc(Cc2cc(C(F)(F)F)nc(OC3CCCC3)n2)cc1` [Example 201, 2-(4-((2-(Cyclopentyloxy)-6-(trifluoromethyl)pyrimidin-4-yl)methyl)phenyl)acetamide], the IC50 (PDE4D7 without asterisk) is more than 1000 nM. For `OCCc1ccc(Nc2cc(OC3CCCC3)nc3c2CCC3)cc1` [Example 257, 2-(4-((2-(Cyclopentyloxy)-6,7-dihydro-5H-cyclopenta[b]pyridin-4-yl)amino)phenyl)ethanol hydrochloride], the IC50 (PDE4D7 without asterisk) is more than 1000 nM. Still for that read-out and setting: in the case of `OCCc1ccc(Nc2cc(C3CCCC3)nc3c2CCC3)cc1` [Example 249, 2-(4-((2-cyclopentyl-6,7-dihydro-5H-cyclopenta[b]pyridin-4-yl)amino)phenyl)ethanol hydrochloride] it was more than 1000 nM; in that of `NC(=O)Cc1ccc(Nc2cc(-c3cccc(Cl)c3)nc(C(F)(F)F)c2)cc1` [Example 145, 2-(4-((2-(3-Chlorophenyl)-6-(trifluoromethyl)pyridin-4-yl)amino)phenyl)acetamide], less than 1000 nM.

For `NC(=O)Cc1ccc(Nc2cc(-c3ccc(Cl)s3)nc3c2CCC3)cc1` [Example 245, 2-(4-((2-(5-Chlorothiophen-2-yl)-6,7-dihydro-5H-cyclopenta[b]pyridin-4-yl)amino)phenyl)acetamide hydrochloride], under “PDE4D7 without asterisk”, the IC50 was more than 1000 nM. As to `CCc1cc(Cc2ccc(CC(N)=O)cc2)nc(C2CCCC2)n1` [Example 226, 2-(4-((2-Cyclopentyl-6-ethylpyrimidin-4-yl)methyl)phenyl)acetamide], the IC50 (PDE4D7 without asterisk) is less than 1000 nM. On to `NC(=O)Cc1ccc(S(=O)(=O)c2cc(-c3cccc(Cl)c3)nc3c2CCC3)cc1` [Example 267, 2-(4-((2-(3-chlorophenyl)-6,7-dihydro-5H-cyclopenta[b]pyridin-4-yl)sulfonyl)phenyl)acetamide], for which the IC50 was more than 1000 nM. As for `CN1CCN(c2cc(Nc3ccc(CC(N)=O)cc3)c3c(n2)CCC3)CC1` [Example 253, 2-(4-((2-(4-methylpiperazin-1-yl)-6,7-dihydro-5H-cyclopenta[b]pyridin-4-yl)amino)phenyl)acetamide hydrochloride], the IC50 was more than 1000 nM. On to `CCc1cc(Cc2ccc(CC(=O)NCCO)cc2)nc(-c2cccc(Cl)c2)n1` [Example 195, 2-(4-((2-(3-chlorophenyl)-6-ethylpyrimidin-4-yl)methyl)phenyl)-N-(2-hydroxyethyl)acetamide], for which the IC50 (PDE4D7 without asterisk) was less than 1000 nM.
